Measured values reported in US6716836B2, “Non-nucleoside reverse transcriptase inhibitors” (Boehringer Ingelheim (Canada) Ltd., priority 2001, dated 2004).

What was measured:
[1] = tested on: HIV replication in T-lymphocytes, virus coding for wild type enzyme; test: ELISA (p24) assay for activity in cell culture, wild type virus; format: cell-based; conditions: Human immunodeficiency virus 1, T-lymphocyte, read-out: EC50 WT RT
Description: (§1) ELISA Assay for Assessment of Activity in Cell Culture
(§2) Compounds of the invention were tested for their ability to inhibit HIV replication in cell culture. Viruses coding for Wild type and mutant enzymes were used. T-lymphocytes were infected with the virus, infected cells were incubated in the presence of varying amounts of compounds of the invention, and an ELISA assay for the viral protein p24 was used to quantify viral replication. Table 9 lists the results as EC50 (nM).

[2] = biological target: T1, HIV-1 RT wild type (WT) (Human immunodeficiency virus type 1 group M subtype B, UniProt P04585); test: Reverse Transcriptase (RT) assay, wild type enzyme; format: biochemical
T1 construct: Heterodimeric RT was eluted using a descending gradient; made in house; host or cells: E. coli
Source text: (§3) Among the enzymes for which Human Immunodeficiency Virus (HIV-1) encodes is a reverse transcriptase (1), so-named because it transcribes a DNA copy from an RNA template. This activity can be quantitatively measured in a cell-free enzyme assay, which has been previously described (2), and is based upon the observation that reverse transcriptase is able to use a synthetic template poly r(C) primed with oligo d(G) to transcribe a radio-labelled, acid-precipitable DNA strand utilising ^3H-dGTP as a substrate. The assay described below utilises the wild type (WT) enzyme, which is the predominant form of the enzyme observed with patients infected with HIV-1. Utilisation of mutant RT enzymes (for example, Y181C, prepared by site-directed mutagenesis in which the tyrosine residue at codon 181 has been replaced by a cysteine residue, or the mutants K103N, V106A and Y188C) and analogous assay conditions allows compounds to be evaluated for their effectiveness at inhibiting the mutant enzymes.
(§4) The HIV-1 RT expression clone, pKRT2, was obtained from Yale University (3). An overnight culture, grown in 2×YT medium (37° C., 225 rpm) (4), supplemented with 100 μg/mL ampicillin for positive selection was used to inoculate the 2×YT medium. The culture was incubated (37° C., 225 rpm) until it reached an OD600 of 0.6-0.9. At that time, the repressor inhibitor IPTG (isopropyl P-D-thiogalactopyranoside) was added to 0.5 mM, and the mixture was incubated for an additional 2 hours.
(§5) Purification of recombinant reverse transcriptase was performed using a combination of methods previously described (5). This procedure is summarised briefly as follows: E. Coli containing RT-1 wt or RT-1 (Y181 C) were suspended in 50 mM MES, pH 6.0 containing 10% glycerol, lysed in a French press, centrifuged, and the supernates discarded. Lysate pellets were extracted with buffer A (50 mM MES, pH 6.0, 100 mM KCl, 50 mM KPi, 10% glycerol, 0.02% hexyl-β-glucoside), and re-centrifuged; nucleic acid in supernates was precipitated with 0.1% polyethylenimine. […] Bound RT was eluted with a gradient of 0 to 1.0M
(§6) (NH4)2 SO4 in buffer B. Heparin-Sepharose fractions containing RT were concentrated (Amicon YM-30 membrane), combined with equal volumes of 2.0M (NH4)2SO4 in buffer B and injected onto a 21.5×150 mm TSK Phenyl-5PW HIC HPLC column (Phenomenex). Heterodimeric RT was eluted using a descending gradient of 1.0M to 0M (NH4)2SO4 in buffer B, concentrated, and stored at 4° C.
(§7) The 2.4× concentrated stock reaction mixture was aliquoted and stored at −20° C. The mixture is stable and can be thawed for use in each assay. This enzyme assay has been adapted to a 96 well microtiter plate system, and has been previously described (6). Tris buffer (50 mM, pH 7.8), vehicle (solvent diluted to match the compound dilution), or compounds in vehicle were dispensed into 96-well microtiter plates (10 μL/well; 3 wells/compound). The HIV-1 RT enzyme was thawed, diluted in 50 mM Tris pH 7.8 containing 0.05% Chaps to give 1.5 nM enzyme and 25 μL were dispensed per well. Ten μL of 0.5M EDTA were added to the first three wells of the microtiter plate. EDTA chelates the Mg^2+ present and prevents reverse transcription. This group served as background polymerisation, which was subtracted, from all other groups. Twenty-five μl of the 2.4× reaction mixture was added to all wells and the assay was allowed to incubate at room temperature for 30 minutes. The assay was terminated by precipitating the DNA in each well with 60 μL of sodium pyrophosphate (2% w/v) in 10% trichloroacetic acid (TCA) (10% w/v). The microtiter plate was incubated for 15 minutes at 4° C. and the precipitate was harvested onto #30 glass fibre paper (Schleicher & Schuell) using a Tomtech 96-well harvester. The filters were dried, placed in plastic bags with Betaplate scintillation cocktail (Pharmacia/LKB) and counted in the Betaplate counter (Pharmacia/LKB).
(§8) The calculation for percent inhibition is as follows: [formula] […]

[3] = tested on: HIV replication in T-lymphocytes, virus coding for mutant enzyme K103N/Y181C; test: ELISA (p24) assay for activity in cell culture, mutant virus; format: cell-based; conditions: Human immunodeficiency virus 1, T-lymphocyte, read-out: EC50 K103N/Y181C
Description: as §1, §2

[4] = biological target: T2, HIV-1 RT double mutant K103N/Y181C (Human immunodeficiency virus type 1 group M subtype B, UniProt P04585, K690N/Y768C); test: Reverse Transcriptase (RT) assay, double mutant enzyme; format: biochemical
T2 construct: Heterodimeric RT was eluted using a descending gradient; made in house; host or cells: E. coli (inferred; the text describes only wild type and Y181C preparations)
Source text: as §3, §4, §5, §6, §7, §8

Compound | EC50 [1] [nM] | IC50 [2] [nM] | EC50 [3] [nM] | IC50 [4] [nM]
CCN1c2ncc(CCOc3cccc4c3CCS(=O)(=O)N4CCCC(=O)O)cc2C(=O)N(C)c2cccnc21 [Compound 625] | < 100 | < 100 | < 100 | < 100
CCN1c2ncc(CCOc3cccc4c3CS(=O)(=O)N4)cc2C(=O)Nc2c(C)cc(F)nc21 [Compound 110] | < 100 | < 100 | < 100 | 100 to 1000
CCN1c2ncc(CCOc3cccc4c3CNS4(=O)=O)cc2C(=O)Nc2c(C)cc(F)nc21 [Compound 223] | < 100 | < 100 | < 100 | < 100
CCN1c2ncc(CCOc3cccc4c3CNS4(=O)=O)cc2C(=O)N(C)c2cccnc21 [Compound 202] | < 100 | < 100 | < 100 | < 100
CCN1c2ncc(CCOc3cccc4c3CS(=O)(=O)N4Cc3ccc[n+]([O-])c3)cc2C(=O)N(C)c2cccnc21 [Compound 132] | < 100 | < 100 | < 100 | < 100
CCN1c2ncc(CCOc3cccc4c3CCS(=O)(=O)N4Cc3ccncc3)cc2C(=O)N(C)c2cccnc21 [Compound 621] | < 100 | < 100 | < 100 | < 100
CCN1c2ncc(CCOc3cccc4c3C=CS(=O)(=O)N4C)cc2C(=O)Nc2c(C)ccnc21 [Compound 804] | < 100 | < 100 | < 100 | < 100
CCN1c2ncc(CCOc3cccc4c3CCS(=O)(=O)N4CCN3CCOCC3)cc2C(=O)N(C)c2cccnc21 [Compound 617] | < 100 | < 100 | < 100 | < 100
CCN1c2ncc(CCOc3cccc4c3CS(=O)(=O)N4Cc3cccnc3)cc2C(=O)N(C)c2cccnc21 [Compound 131] | < 100 | < 100 | < 100 | < 100
CCN1c2ncc(CCOc3cccc4c3CCS(=O)(=O)N4CC(=O)NC3(C(=O)O)CC3)cc2C(=O)N(C)c2cccnc21 [Compound 638] | < 100 | < 100 | < 100 | < 100
CCN1c2ncc(CCOc3cccc4c3CCS(=O)(=O)N4)cc2C(=O)Nc2c(C)cc(F)nc21 [Compound 602] | < 100 | < 100 | < 100 | < 100
CCN1c2ncc(CCOc3cccc4c3C=CS(=O)(=O)N4C)cc2C(=O)N(C)c2cccnc21 [Compound 803] | < 100 | < 100 | < 100 | < 100
CCN1c2ncc(CCOc3cccc4c3CS(=O)(=O)N4CC(=O)Nc3cc[n+]([O-])cc3)cc2C(=O)Nc2c(C)cc(Cl)nc21 [Compound 147] | < 100 | < 100 | < 100 | < 100
CCN1c2ncc(CCOc3cccc4c3CCS(=O)(=O)N4)cc2C(=O)N(C)c2cccnc21 [Compound 601] | < 100 | < 100 | < 100 | < 100
CCN1c2ncc(CCOc3cccc4c3CS(=O)(=O)N4Cc3ccc[n+]([O-])c3)cc2C(=O)Nc2c(C)ccnc21 [Compound 137] | < 100 | < 100 | < 100 | < 100
CCN1c2ncc(CCOc3cccc4c3CCS(=O)(=O)N4CCOC(N)=O)cc2C(=O)N(C)c2cccnc21 [Compound 639] | < 100 | < 100 | < 100 | < 100
CCN1c2ncc(CCOc3cccc4c3CCS(=O)(=O)N4CC(=O)NC(C)(C)C(=O)NN)cc2C(=O)N(C)c2cccnc21 [Compound 641] | < 100 | < 100 | < 100 | < 100
CCN1c2ncc(CCOc3cccc4c3CCS(=O)(=O)N4CCCC(=O)NN)cc2C(=O)N(C)c2cccnc21 [Compound 636] | < 100 | < 100 | < 100 | < 100
